Laboratory results as given in publication PMC8284473, “Preliminary Characterization of NP339, a Novel Polyarginine Peptide with Broad Antifungal Activity” (Antimicrobial Agents and Chemotherapy, 2021).

Legend:
[1] = test system: A549 epithelial lung cell line; test: NP339 cytotoxicity, LIVE/DEAD staining; type: cell-based, human; conditions: A549 monolayer, 3 h, 37°C, RPMI 1640; concentrations hundreds of folds above antifungal; n = 2
Procedure: Lung epithelial cells (A549 cells; ATCC [distributed by LGC Promochem, Teddington, United Kingdom]) were cultured in a 96-well plate in Ham’s F-12K medium (Fisher Scientific UK, Ltd.) supplemented with 10% (vol/vol) fetal bovine serum. The cells were incubated under 5% CO2 at 37°C until 90% confluent. NP339 solutions and 0.25% SDS (the kill control) were prepared in prewarmed RPMI 1640 medium. Once the cells reached 90% confluence, the culture medium was removed from the 96-well plate, taking care not to disturb the cells, and 100 μl of NP339 solution was added to the cell monolayer. The plates were incubated at 37°C under 5% CO2 for 3 h. Toxicity was determined using the Molecular Probes LIVE/DEAD Viability/Cytotoxicity kit, as per the manufacturer’s instructions. As the kill control, 0.25% (wt/vol) SDS was used. Untreated cells were the live control (cells incubated with the medium).

human PBMCs = test: NP339 cytotoxicity, LIVE/DEAD staining; type: cell-based; conditions: human PBMCs 5 × 10^5 cells/well, 2 h, 37°C, RPMI 1640; concentrations hundreds of folds above antifungal; n = 2
Procedure: PBMCs were isolated from fresh human whole blood using Leucosep tubes (Greiner Bio-One), according to the manufacturer’s instructions. The cells were suspended in RPMI 1640 medium (5 × 10^6 cells/ml) and transferred to 96-well plate (5 × 10^5 cells/well). NP339 solutions were prepared in prewarmed RPMI 1640 medium and added to the cell suspension. The plates were incubated at 37°C under 5% CO2 for 2 h. Toxicity was determined using the Molecular Probes LIVE/DEAD Viability/Cytotoxicity kit (Fisher Scientific UK, Ltd.). As the kill control, 0.1% (vol/vol) Triton X-100 was used. Untreated cells were the live control.

[2] = Tolerability in mouse models of infection; type: in vivo; conditions: at the therapeutic doses and duration of therapy used
Procedure: In all experiments, the animals were housed 4 or 5/cage in sterilized individual ventilated cages exposing the mice at all times to HEPA-filtered sterile air. Food and water were available ad libitum, and sterile aspen chip bedding was changed at least once weekly. The room temperature was 22 ± 1°C, with a relative humidity of 60% and maximum background noise of 56 dB. Mice were exposed to 12-h light/dark cycles. Before the experiments, the animals were randomly divided into groups. After the experiments, the animals were sacrificed by humane euthanasia by delivering 0.5 ml of 200 mg/ml pentobarbital solution via intraperitoneal injection. For quantification of fungal burden, samples were diluted appropriately and then quantitatively cultured on to SAB containing 0.05 mg/ml chloramphenicol and incubated at 37°C for 24 to 48 h before enumeration.
Male CD1 mice (n = 24 mice, 6 to 8 weeks of age, average weight of 23.5 g) were obtained from Charles River, Margate, United Kingdom. […] The mice were culled 29 h postinfection, and fungal kidney burdens were determined by plating as previously described.
Female BALB/c mice (n = 24 mice, 6 to 8 weeks of age, weight of 16 to 18 g) were obtained from Charles River, Margate, United Kingdom. […] At 3 days postinfection, fungal burdens in vaginal lavage samples were determined as described above. […]

human whole blood = human whole blood exposed to the peptide; data not shown

Question: For `N=C(N)NCCC[C@H](NC(=O)[C@H](CCCNC(=N)N)NC(=O)[C@H](CCCNC(=N)N)NC(=O)[C@H](CCCNC(=N)N)NC(=O)[C@H](CCCNC(=N)N)NC(=O)[C@H](CCCNC(=N)N)NC(=O)[C@H](CCCNC(=N)N)NC(=O)[C@H](CCCNC(=N)N)NC(=O)[C@H](CCCNC(=N)N)NC(=O)[C@H](CCCNC(=N)N)NC(=O)[C@H](CCCNC(=N)N)NC(=O)[C@H](CCCNC(=N)N)NC(=O)[C@@H](N)CCCNC(=N)N)C(=O)O` [NP339], which “Cytotoxicity (live/dead cell ratio)” value [1] is on record?
Answer: not toxic

Question: What about the “Cytotoxicity (live/dead cell ratio)” value (human PBMCs) of the same molecule?
Answer: not toxic

Question: What about the Tolerability [2] of the same molecule?
Answer: well tolerated

Question: What about the “Nonspecific immune response (cytokine measurements)” value (human whole blood) of the same molecule?
Answer: did not elicit a nonspecific immune response
